Measured values reported in patent US7347970B2, “Biocides based on silanol terminated silanes and siloxanes” (University of Florida Research Foundation, Inc., priority 2004, dated 2008).

Assays:
Assay type in all cases: cell-based
E. coli [1] = assay: Antimicrobial (bioactivity) test, plate counts and dilution method, log reduction; settings: for bioactivity against E. coli: with cosolvent propylene glycol n-propyl ether, FIG. 6
Description: Bioactivity (toxicity) tests were performed using silanols according to the invention along with some controls. E. coli was provided as the target microorganism. […] 20th ed. L. S. Clesceri, A. E. Greenberg, A. D. Eaton (eds.) Washington, D.C. was employed to measure the number of viable cells after the bioactivity tests. The collected sample underwent serial dilutions in which the original sample collected was diluted in a series of dilution tubes. Each succeeding dilution tube will have only one-tenth the number of microbial cells as the preceding tube. Then the samples of the dilution were used to inoculate Petri plates containing solid medium. The sample on the plates was plated evenly over the surface of the solid medium. Colonies grew only on surface of medium and could be counted. This count was used to estimate the number of viable bacterial in the original sample.
Log reduction represents the number of E. coli eliminated through the silanol or other chemical treatment. The experiments were operated for an hour with proper stirring in aqueous solution. […] Log reduction 8 represents the detection limit for the experiment performed, and thus represents complete removal.
(§1) Nine (9) ml of D.I. water was mixed with 1 ml of E. coli solution, and antimicrobial materials for 1 hr with magnetic stirring, then sampling was carried out. The plate counting method as described above was employed to measure the viability of the E. coli.

E. coli [2] = assay: Minimum lethal concentration (MLC) against E. coli; settings: for minimum lethal concentration compared with corresponding alcohol: E. coli, FIG. 10
Description: The minimum lethal concentration against E. coli for each silanol is defined as the maximum dilution of the product that will kill a test organism. […] The antimicrobial effect increased with an increase in the number of the alkyl chain of the substituent R, in the order of methyl<ethyl<n-propyl<n-butyl as shown FIG. 5.
Antimicrobial test was carried out to compare the bioactivity of fragrance ingredient of alcohols and the corresponding silanols according to the invention against E. coli. Alcohols, 2-methyl-1-phenyl-2-propanol corresponding to benzyldimethylsilanol, 2-methyl-4-phenyl-2-butanol corresponding to phenethyldimethylsilanol, were obtained from Sigma-Aldrich, and the silanols were prepared by the hydrolysis of chlorosilane.
as §1

E. coli [3] = assay: Antimicrobial (bioactivity) test, plate counts and dilution method, log reduction; settings: 0.2 (% g/g), 10 minute mixing, FIG. 3; below detection limit
[4] = 2 (% g/g), FIG. 4, complete removal
[5] = 0.1% g/g with cosolvent propylene glycol n-propyl ether, FIG. 6/7

Molecule | log reduction of E. coli (E. coli [1]; [4]) | log reduction of E. coli (E. coli [1]; [5]) | further results
C[Si](C)(O)CCC(F)(F)F [3,3,3-trifluoropropyldimethylsilanol] | eight | – | –
C[Si](C)(O)Cc1ccccc1 [Benzyldimethylsilanol (UF), Benzyldimethylsilanol] | – | – | minimum lethal concentration compared with corresponding alcohol (E. coli [2]): lower than their corresponding alcohols
C[Si]1(C)O[Si](C)(C)O[Si](C)(C)O[Si](C)(C)O1 [D4, octamethylcyclotetrasiloxane, reference compound] | – | – | bioactivity against E. coli (E. coli [1]): did not provide significant bioactivity
C[Si](C)(O)CCc1ccccc1 [Phenethyldimethylsilanol (UF), Phenethyldimethylsilanol] | – | – | minimum lethal concentration compared with corresponding alcohol (E. coli [2]): lower than their corresponding alcohols
C[Si](C)(O)c1ccccc1 [Phenyldimethylsilanol] | eight | – | –
CC(C)(C)O [t-butanol, reference compound] | – | – | bioactivity against E. coli (E. coli [1]): did not provide significant bioactivity
CC(C)(C)[Si](C)(C)O [t-butyldimethylsilanol] | – | 8 log | –
CC[Si](O)(CC)CC [triethylsilanol] | eight | 8 log | antimicrobial effect by minimum lethal concentration (E. coli [2]; FIG. 5): strong antimicrobial effect; reduction of E. coli (E. coli [3]): more than eight; log reduction of E. coli (E. coli [1]; 2.5 (% g/g), FIG. 2, 8 = detection limit): 8 log; antimicrobial effect (log reduction of E. coli) (E. coli [1]; 10 (% g/g), one hour stirring in aqueous solution, FIG. 1): high antimicrobial effect
C[Si](C)(C)O [trimethyisilanol] | – | 8 log | –
C=C[Si](C)(C)O [vinyldimethylsilanol] | eight | – | –
diphenylmethylsilanol | – | 8 log | –
vinylphenylmethylsilanol | eight | – | –
